Measured values: US8569344B2, “N-piperidinyl acetamide derivatives as calcium channel blockers” (Zalicus Pharmaceuticals Ltd., priority 2008, dated 2013)

Key:
[1] = biological target: T1, human α1H T-type channels (Homo sapiens, UniProt O95180); test: T-type calcium channel block, whole cell patch clamp in HEK cells (α1H); assay type: cell-based; settings: HEK cells, patch clamp, mainly non-inactivated protocol; values above 10 μM shown as 10 μM; read-out: T-type Calcium Channel Block α1H IC50
T1 construct: expressed in transfected cells; host or cells: HEK 293

[2] = biological target: T2, human α1G T-type channels (Homo sapiens, UniProt O43497); test: T-type calcium channel block, whole cell patch clamp in HEK cells (α1G); assay type: cell-based; settings: HEK cells, patch clamp, mainly non-inactivated protocol; values above 10 μM shown as 10 μM, below 0.30 μM shown as 0.30 μM; read-out: T-type Calcium Channel Block α1G IC50
T2 construct: expressed in transfected cells; host or cells: HEK 293
T2 sequence (O43497 whole entry): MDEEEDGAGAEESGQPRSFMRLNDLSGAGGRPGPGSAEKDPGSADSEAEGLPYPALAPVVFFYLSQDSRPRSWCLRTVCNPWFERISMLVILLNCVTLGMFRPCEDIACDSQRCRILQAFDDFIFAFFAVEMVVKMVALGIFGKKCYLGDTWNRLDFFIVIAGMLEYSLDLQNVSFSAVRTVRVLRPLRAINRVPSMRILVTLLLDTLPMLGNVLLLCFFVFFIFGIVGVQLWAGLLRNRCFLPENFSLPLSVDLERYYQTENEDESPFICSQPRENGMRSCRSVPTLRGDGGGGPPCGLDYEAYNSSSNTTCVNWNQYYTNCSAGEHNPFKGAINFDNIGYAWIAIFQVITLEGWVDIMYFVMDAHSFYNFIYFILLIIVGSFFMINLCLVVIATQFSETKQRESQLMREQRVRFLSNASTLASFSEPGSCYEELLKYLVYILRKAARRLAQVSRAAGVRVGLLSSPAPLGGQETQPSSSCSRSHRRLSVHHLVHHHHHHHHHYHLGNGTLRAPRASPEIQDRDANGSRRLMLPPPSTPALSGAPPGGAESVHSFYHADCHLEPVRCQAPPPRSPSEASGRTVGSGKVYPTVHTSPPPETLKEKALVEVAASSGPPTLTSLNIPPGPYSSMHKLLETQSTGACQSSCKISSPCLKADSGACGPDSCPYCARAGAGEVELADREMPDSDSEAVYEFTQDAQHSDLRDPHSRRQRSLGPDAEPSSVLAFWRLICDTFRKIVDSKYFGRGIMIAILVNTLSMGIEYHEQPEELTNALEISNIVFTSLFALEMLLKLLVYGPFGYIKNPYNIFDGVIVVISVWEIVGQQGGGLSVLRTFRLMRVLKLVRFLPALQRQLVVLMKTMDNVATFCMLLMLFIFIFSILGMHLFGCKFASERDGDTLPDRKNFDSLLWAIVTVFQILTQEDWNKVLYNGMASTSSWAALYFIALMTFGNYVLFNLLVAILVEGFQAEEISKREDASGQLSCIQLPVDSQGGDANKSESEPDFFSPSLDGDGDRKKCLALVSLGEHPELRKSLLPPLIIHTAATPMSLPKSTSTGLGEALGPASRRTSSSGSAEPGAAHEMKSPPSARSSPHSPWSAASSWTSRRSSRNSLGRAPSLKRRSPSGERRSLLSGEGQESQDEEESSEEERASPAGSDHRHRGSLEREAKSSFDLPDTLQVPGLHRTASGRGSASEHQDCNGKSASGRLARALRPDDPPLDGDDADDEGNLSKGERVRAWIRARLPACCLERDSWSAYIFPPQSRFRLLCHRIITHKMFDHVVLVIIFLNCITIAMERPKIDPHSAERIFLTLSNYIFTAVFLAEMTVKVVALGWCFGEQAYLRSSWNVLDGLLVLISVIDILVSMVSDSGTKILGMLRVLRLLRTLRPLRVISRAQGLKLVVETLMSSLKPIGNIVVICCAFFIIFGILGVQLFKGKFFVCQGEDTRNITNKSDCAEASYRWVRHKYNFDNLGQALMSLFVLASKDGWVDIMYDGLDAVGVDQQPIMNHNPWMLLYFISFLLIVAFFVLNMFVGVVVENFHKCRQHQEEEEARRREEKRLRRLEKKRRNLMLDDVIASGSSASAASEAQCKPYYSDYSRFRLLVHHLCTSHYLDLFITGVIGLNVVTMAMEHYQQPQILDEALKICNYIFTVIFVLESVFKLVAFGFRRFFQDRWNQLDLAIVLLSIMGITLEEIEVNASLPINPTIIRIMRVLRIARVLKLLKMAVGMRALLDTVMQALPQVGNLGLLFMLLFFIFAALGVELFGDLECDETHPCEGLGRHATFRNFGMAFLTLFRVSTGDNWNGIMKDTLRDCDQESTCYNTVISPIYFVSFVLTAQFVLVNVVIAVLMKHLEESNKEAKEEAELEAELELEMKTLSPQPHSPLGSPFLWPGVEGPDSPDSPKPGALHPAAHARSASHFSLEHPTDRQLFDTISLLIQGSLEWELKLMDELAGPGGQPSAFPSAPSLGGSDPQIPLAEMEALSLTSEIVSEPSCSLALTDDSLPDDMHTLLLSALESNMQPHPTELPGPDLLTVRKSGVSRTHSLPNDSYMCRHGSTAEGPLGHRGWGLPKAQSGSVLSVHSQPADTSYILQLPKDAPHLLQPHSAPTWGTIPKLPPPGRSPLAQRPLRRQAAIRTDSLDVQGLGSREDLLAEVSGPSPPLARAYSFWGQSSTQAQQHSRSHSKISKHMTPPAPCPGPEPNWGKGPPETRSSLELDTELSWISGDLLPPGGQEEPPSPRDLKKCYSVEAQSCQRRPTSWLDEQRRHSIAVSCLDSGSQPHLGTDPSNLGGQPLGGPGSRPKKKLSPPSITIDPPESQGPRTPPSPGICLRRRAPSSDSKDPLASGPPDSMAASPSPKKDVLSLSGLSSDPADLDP

T1 sequence (O95180 whole entry): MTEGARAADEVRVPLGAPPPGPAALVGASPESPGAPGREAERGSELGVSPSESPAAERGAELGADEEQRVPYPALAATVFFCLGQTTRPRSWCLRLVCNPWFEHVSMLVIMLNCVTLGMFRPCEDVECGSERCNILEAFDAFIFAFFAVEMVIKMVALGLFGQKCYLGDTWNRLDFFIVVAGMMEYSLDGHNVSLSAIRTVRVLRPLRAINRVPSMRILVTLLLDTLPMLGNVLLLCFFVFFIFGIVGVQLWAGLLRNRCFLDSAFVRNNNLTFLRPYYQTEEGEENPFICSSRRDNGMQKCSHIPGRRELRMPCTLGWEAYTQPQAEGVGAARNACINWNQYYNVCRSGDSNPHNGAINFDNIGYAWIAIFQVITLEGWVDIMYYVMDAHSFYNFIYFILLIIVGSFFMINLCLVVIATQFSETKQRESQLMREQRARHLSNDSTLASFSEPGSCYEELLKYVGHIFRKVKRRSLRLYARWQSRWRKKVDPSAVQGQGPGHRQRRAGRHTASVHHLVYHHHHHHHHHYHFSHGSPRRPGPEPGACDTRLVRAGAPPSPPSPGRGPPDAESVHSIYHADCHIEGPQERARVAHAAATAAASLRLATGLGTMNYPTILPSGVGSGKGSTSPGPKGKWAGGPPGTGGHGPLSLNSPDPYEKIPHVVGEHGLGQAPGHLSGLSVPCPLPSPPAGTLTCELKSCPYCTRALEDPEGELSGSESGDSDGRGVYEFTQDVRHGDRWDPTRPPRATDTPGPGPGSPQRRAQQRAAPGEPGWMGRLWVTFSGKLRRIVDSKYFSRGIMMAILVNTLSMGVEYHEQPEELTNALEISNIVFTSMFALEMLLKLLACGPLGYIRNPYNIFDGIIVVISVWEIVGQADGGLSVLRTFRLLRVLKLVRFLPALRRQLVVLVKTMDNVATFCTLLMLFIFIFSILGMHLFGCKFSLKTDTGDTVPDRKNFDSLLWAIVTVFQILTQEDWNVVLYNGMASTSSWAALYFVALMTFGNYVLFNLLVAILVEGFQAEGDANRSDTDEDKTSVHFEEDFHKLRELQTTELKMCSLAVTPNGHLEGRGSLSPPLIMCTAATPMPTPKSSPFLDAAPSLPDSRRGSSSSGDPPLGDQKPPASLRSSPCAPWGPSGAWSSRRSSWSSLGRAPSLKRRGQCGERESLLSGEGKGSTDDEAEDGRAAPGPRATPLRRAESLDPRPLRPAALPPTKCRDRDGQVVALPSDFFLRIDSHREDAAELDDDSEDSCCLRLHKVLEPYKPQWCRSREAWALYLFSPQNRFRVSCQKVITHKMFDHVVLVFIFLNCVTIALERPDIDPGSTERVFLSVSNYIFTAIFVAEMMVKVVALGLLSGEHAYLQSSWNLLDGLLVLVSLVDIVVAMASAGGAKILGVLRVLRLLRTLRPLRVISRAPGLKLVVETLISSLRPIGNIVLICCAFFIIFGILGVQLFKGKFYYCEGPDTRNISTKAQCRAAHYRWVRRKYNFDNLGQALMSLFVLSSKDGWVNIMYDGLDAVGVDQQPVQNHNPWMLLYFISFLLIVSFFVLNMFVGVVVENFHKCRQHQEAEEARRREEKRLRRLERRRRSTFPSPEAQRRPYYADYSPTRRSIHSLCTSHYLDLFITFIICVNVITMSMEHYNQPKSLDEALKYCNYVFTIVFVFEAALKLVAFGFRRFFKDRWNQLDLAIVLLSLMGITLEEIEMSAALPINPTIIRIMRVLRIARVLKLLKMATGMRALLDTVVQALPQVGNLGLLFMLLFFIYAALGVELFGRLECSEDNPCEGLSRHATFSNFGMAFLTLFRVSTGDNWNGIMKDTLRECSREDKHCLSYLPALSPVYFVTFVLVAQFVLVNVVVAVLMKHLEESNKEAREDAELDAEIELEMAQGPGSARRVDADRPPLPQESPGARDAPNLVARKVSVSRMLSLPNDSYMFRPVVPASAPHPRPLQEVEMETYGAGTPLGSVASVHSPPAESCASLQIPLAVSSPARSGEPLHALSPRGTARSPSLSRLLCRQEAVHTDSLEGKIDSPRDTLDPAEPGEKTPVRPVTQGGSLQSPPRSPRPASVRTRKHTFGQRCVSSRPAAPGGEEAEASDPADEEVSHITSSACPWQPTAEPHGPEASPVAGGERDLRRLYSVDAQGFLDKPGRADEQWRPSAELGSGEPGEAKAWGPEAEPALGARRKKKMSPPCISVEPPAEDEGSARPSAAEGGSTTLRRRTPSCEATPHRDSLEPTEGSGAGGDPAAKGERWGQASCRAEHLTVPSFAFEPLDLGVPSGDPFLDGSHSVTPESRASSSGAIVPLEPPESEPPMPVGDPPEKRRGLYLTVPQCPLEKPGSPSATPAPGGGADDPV

Row | IC50 [1] [nM] | IC50 [2] [nM] | SMILES
1 | > 10000 | > 10000 | O=C(NCC1CCN(C(=O)CN2CCCC(O)C2)CC1)c1cc(C(F)(F)F)cc(C(F)(F)F)c1 (stereo not shown) [Compound 240, N-((1-(2-(3-hydroxypiperidin-1-yl)acetyl)piperidin-4-yl)methyl)-3,5-bis(trifluoromethyl)benzamide]
2 | 520 | < 300 | CCCCCNCC(=O)N1CCC(CNC(=O)c2cc(C(F)(F)F)cc(C(F)(F)F)c2)CC1 [Compound 241, N-((1-(2-(pentylamino)acetyl)piperidin-4-yl)methyl)-3,5-bis(trifluoromethyl)benzamide]
3 | 810 | 530 | CCC1CCCCN1CC(=O)N1CCC(CNC(=O)c2cc(C(F)(F)F)cc(C(F)(F)F)c2)CC1 (stereo not shown) [Compound 243, N-((1-(2-(2-ethylpiperidin-1-yl)acetyl)piperidin-4-yl)methyl)-3,5-bis(trifluoromethyl)benzamide]
4 | > 10000 | 7190 | O=C(NCC1CCN(C(=O)CNCCCN2CCOCC2)CC1)c1cc(C(F)(F)F)cc(C(F)(F)F)c1 [Compound 244, N-((1-(2-(3-morpholinopropylamino)acetyl)piperidin-4-yl)methyl)-3,5-bis(trifluoromethyl)benzamide]
5 | 1130 | 1310 | CN(CC(=O)N1CCC(CNC(=O)c2cc(C(F)(F)F)cc(C(F)(F)F)c2)CC1)C1CCCCC1 [Compound 246, N-((1-(2-(cyclohexyl(methyl)amino)acetyl)piperidin-4-yl)methyl)-3,5-bis(trifluoromethyl)benzamide]
6 | 500 | < 300 | O=C(NCC1CCN(C(=O)CNC2CCCC2)CC1)c1cc(C(F)(F)F)cc(C(F)(F)F)c1 [Compound 247, N-((1-(2-(cyclopentylamino)acetyl)piperidin-4-yl)methyl)-3,5-bis(trifluoromethyl)benzamide]
7 | 480 | < 300 | CC1CCCCC1NCC(=O)N1CCC(CNC(=O)c2cc(C(F)(F)F)cc(C(F)(F)F)c2)CC1 (stereo not shown) [Compound 248, N-((1-(2-(2-methylcyclohexylamino)acetyl)piperidin-4-yl)methyl)-3,5-bis(trifluoromethyl)benzamide]
8 | 580 | < 300 | O=C(NCC1CCN(C(=O)CNC2CCCCC2)CC1)c1cc(C(F)(F)F)cc(C(F)(F)F)c1 [Compound 249, N-((1-(2-(cyclohexylamino)acetyl)piperidin-4-yl)methyl)-3,5-bis(trifluoromethyl)benzamide]
9 | > 10000 | > 10000 | COC1CCN(CC(=O)N2CCC(CNC(=O)c3cc(C(F)(F)F)cc(C(F)(F)F)c3)CC2)CC1 [Compound 251, N-((1-(2-(4-methoxypiperidin-1-yl)acetyl)piperidin-4-yl)methyl)-3,5-bis(trifluoromethyl)benzamide]
10 | 2340 | 2430 | C[C@@H]1CCCCN1CC(=O)N1CCC(CNC(=O)c2cc(C(F)(F)F)cc(C(F)(F)F)c2)CC1 [Compound 252, (R)-N-((1-(2-(2-methylpiperidin-1-yl)acetyl)piperidin-4-yl)methyl)-3,5-bis(trifluoromethyl)benzamide]
11 | 1310 | 480 | CCC1CCCN1CC(=O)N1CCC(CNC(=O)c2cc(C(F)(F)F)cc(C(F)(F)F)c2)CC1 (stereo not shown) [Compound 253, N-((1-(2-(2-ethylpyrrolidin-1-yl)acetyl)piperidin-4-yl)methyl)-3,5-bis(trifluoromethyl)benzamide]
12 | 2340 | 570 | O=C(NCC1CCN(C(=O)CN2CCCC(C(F)(F)F)C2)CC1)c1cc(C(F)(F)F)cc(C(F)(F)F)c1 (stereo not shown) [Compound 255, 3,5-bis(trifluoromethyl)-N-((1-(2-(3-(trifluoromethyl)piperidin-1-yl)acetyl)piperidin-4-yl)methyl)benzamide]
13 | > 10000 | 5570 | O=C(NCC1CCN(C(=O)CN2CCCC(F)(F)C2)CC1)c1cc(C(F)(F)F)cc(C(F)(F)F)c1 [Compound 256, N-((1-(2-(3,3-difluoropiperidin-1-yl)acetyl)piperidin-4-yl)methyl)-3,5-bis(trifluoromethyl)benzamide]
14 | 2420 | 3210 | O=C(NCC1CCN(C(=O)CNC2CC2)CC1)c1cc(C(F)(F)F)cc(C(F)(F)F)c1 [Compound 257, N-((1-(2-(cyclopropylamino)acetyl)piperidin-4-yl)methyl)-3,5-bis(trifluoromethyl)benzamide]
15 | 3240 | 1180 | CC(C)(C)C1CCN(CC(=O)N2CCC(CNC(=O)c3cc(C(F)(F)F)cc(C(F)(F)F)c3)CC2)CC1 [Compound 258, N-((1-(2-(4-tert-butylpiperidin-1-yl)acetyl)piperidin-4-yl)methyl)-3,5-bis(trifluoromethyl)benzamide]
16 | 530 | < 300 | C[C@H]1CC[C@H](NCC(=O)N2CCC(CNC(=O)c3cc(C(F)(F)F)cc(C(F)(F)F)c3)CC2)CC1 [Compound 264, N-((1-(2-((1r,4r)-4-methylcyclohexylamino)acetyl)piperidin-4-yl)methyl)-3,5-bis(trifluoromethyl)benzamide]

Row | IC50 [1] [nM] | IC50 [2] [nM] | SMILES
17 | 3760 | 2060 | CC(C)(C)NCC(=O)N1CCC(CNC(=O)c2cc(F)cc(C(F)(F)F)c2)CC1 [Compound 265, N-((1-(2-(tert-butylamino)acetyl)piperidin-4-yl)methyl)-3-fluoro-5-(trifluoromethyl)benzamide]
18 | 870 | 390 | CCCCCNCC(=O)N1CCC(CNC(=O)c2cc(F)cc(C(F)(F)F)c2)CC1 [Compound 267, 3-fluoro-N-((1-(2-(pentylamino)acetyl)piperidin-4-yl)methyl)-5-(trifluoromethyl)benzamide]
19 | > 10000 | > 10000 | CC1CCCN(CC(=O)N2CCC(CNC(=O)c3cc(F)cc(C(F)(F)F)c3)CC2)C1 (stereo not shown) [Compound 268, 3-fluoro-N-((1-(2-(3-methylpiperidin-1-yl)acetyl)piperidin-4-yl)methyl)-5-(trifluoromethyl)benzamide]
20 | 3140 | 1400 | CCC1CCCCN1CC(=O)N1CCC(CNC(=O)c2cc(F)cc(C(F)(F)F)c2)CC1 (stereo not shown) [Compound 269, N-((1-(2-(2-ethylpiperidin-1-yl)acetyl)piperidin-4-yl)methyl)-3-fluoro-5-(trifluoromethyl)benzamide]
21 | > 10000 | 2840 | CN(CC(=O)N1CCC(CNC(=O)c2cc(F)cc(C(F)(F)F)c2)CC1)C1CCCCC1 [Compound 272, N-((1-(2-(cyclohexyl(methyl)amino)acetyl)piperidin-4-yl)methyl)-3-fluoro-5-(trifluoromethyl)benzamide]
22 | 1420 | 360 | O=C(NCC1CCN(C(=O)CNC2CCCC2)CC1)c1cc(F)cc(C(F)(F)F)c1 [Compound 273, N-((1-(2-(cyclopentylamino)acetyl)piperidin-4-yl)methyl)-3-fluoro-5-(trifluoromethyl)benzamide]
23 | 660 | < 300 | CC1CCCCC1NCC(=O)N1CCC(CNC(=O)c2cc(F)cc(C(F)(F)F)c2)CC1 (stereo not shown) [Compound 274, 3-fluoro-N-((1-(2-(2-methylcyclohexylamino)acetyl)piperidin-4-yl)methyl)-5-(trifluoromethyl)benzamide]
24 | > 10000 | 1990 | O=C(NCC1CCN(C(=O)CNC2CCCCC2O)CC1)c1cc(F)cc(C(F)(F)F)c1 (stereo not shown) [Compound 275, 3-fluoro-N-((1-(2-(2-hydroxycyclohexylamino)acetyl)piperidin-4-yl)methyl)-5-(trifluoromethyl)benzamide]
25 | 1090 | 310 | O=C(NCC1CCN(C(=O)CNC2CCCCC2)CC1)c1cc(F)cc(C(F)(F)F)c1 [Compound 276, N-((1-(2-(cyclohexylamino)acetyl)piperidin-4-yl)methyl)-3-fluoro-5-(trifluoromethyl)benzamide]
26 | > 10000 | > 10000 | C[C@@H]1CCCCN1CC(=O)N1CCC(CNC(=O)c2cc(F)cc(C(F)(F)F)c2)CC1 [Compound 279, (R)-3-fluoro-N-((1-(2-(2-methyl-piperidin-1-yl)acetyl)piperidin-4-yl)methyl)-5-(trifluoromethyl)benzamide]
27 | 5590 | 9700 | CCC1CCCN1CC(=O)N1CCC(CNC(=O)c2cc(F)cc(C(F)(F)F)c2)CC1 (stereo not shown) [Compound 280, N-((1-(2-(2-ethylpyrrolidin-1-yl)acetyl)piperidin-4-yl)methyl)-3-fluoro-5-(trifluoromethyl)benzamide]
28 | 7160 | 2500 | O=C(NCC1CCN(C(=O)CN2CCCC(C(F)(F)F)C2)CC1)c1cc(F)cc(C(F)(F)F)c1 (stereo not shown) [Compound 282, 3-fluoro-5-(trifluoromethyl)-N-((1-(2-(3-(trifluoromethyl)piperidin-1-yl)acetyl)piperidin-4-yl)methyl)benzamide]
29 | > 10000 | 4940 | CC(C)(C)C1CCN(CC(=O)N2CCC(CNC(=O)c3cc(F)cc(C(F)(F)F)c3)CC2)CC1 [Compound 285, N-((1-(2-(4-tert-butylpiperidin-1-yl)acetyl)piperidin-4-yl)methyl)-3-fluoro-5-(trifluoromethyl)benzamide]
30 | 510 | < 300 | C[C@H]1CC[C@H](NCC(=O)N2CCC(CNC(=O)c3cc(F)cc(C(F)(F)F)c3)CC2)CC1 [Compound 291, 3-fluoro-N-((1-(2-((1r,4r)-4-methylcyclohexylamino)acetyl)piperidin-4-yl)methyl)-5-(trifluoromethyl)benzamide]
31 | 740 | 360 | CC(C)(C)C(=O)NCCN1CCC(CNC(=O)c2cccc(OC(F)(F)F)c2)CC1 [Compound 292, N-((1-(2-pivalamidoethyl)piperidin-4-yl)methyl)-3-(trifluoromethoxy)benzamide]
32 | 4070 | 5180 | CC(C)(C)C(=O)NCCN1CCC(CNC(=O)c2cc(F)cc(F)c2)CC1 [Compound 293, 3,5-difluoro-N-((1-(2-pivalamidoethyl)piperidin-4-yl)methyl)benzamide]
